Measured values taken from ChEMBL document CHEMBL2331257, “(M)- and (P)-bicelaphanol A, dimeric trinorditerpenes with promising neuroprotective activity from Celastrus orbiculatus” (2013).

Tests used:
Type in all cases: functional
PC-12 [1] = test: Neuroprotective activity against H2O2-induced toxicity in rat PC12 cells assessed as cell viability at 100 uM incubated for 2 hrs prior to H2O2-challenge measured after 24 hrs by MTT assay relative to control; details: read-out: Activity
PC-12 [2] = test: Neuroprotective activity against H2O2-induced toxicity in rat PC12 cells assessed as cell viability at 10 uM incubated for 2 hrs prior to H2O2-challenge measured after 24 hrs by MTT assay relative to control; details: for viability at 10 µM: Rattus norvegicus, PC-12, read-out: Activity
PC-12 [3] = test: Neuroprotective activity against H2O2-induced toxicity in rat PC12 cells assessed as cell viability at 1 uM incubated for 2 hrs prior to H2O2-challenge measured after 24 hrs by MTT assay relative to control; details: for viability at 1 µM: Rattus norvegicus, PC-12, read-out: Activity

Compound | viability at 100 µM (PC-12 [1]) | viability at 10 µM (PC-12 [2]) | viability at 1 µM (PC-12 [3]) | Activity (PC-12 [2]) | Activity (PC-12 [3])
CC(=O)N[C@@H](CS)C(=O)O [ACETYLCYSTEINE] | 76.1% | – | – | – | –
CC1(C)CCC[C@@]2(C)C1=C(O)C(=O)c1cc(O)c(O)cc12 [CELAPHANOL A] | – | 76.9% | 66.4% | – | –
CC1(C)CCC[C@@]2(C)C1=C(O)C(=O)c1c2cc(O)c(O)c1C1=C2C=C(O)C(=O)C=C2[C@@]2(C)CCCC(C)(C)[C@@H]2C1=O (stereo in doubt; 2) | – | 91.6% | 78.3% | – | –
CC1(C)CCC[C@@]2(C)C1=C(O)C(=O)c1c2cc(O)c(O)c1C1=C2C=C(O)C(=O)C=C2[C@@]2(C)CCCC(C)(C)[C@@H]2C1=O (stereo in doubt; 1) | – | – | – | 102.7% | 81.3%
